# How the values were obtained:
# blackgrass = assay: Test B pre/postemergence blackgrass; format: in vivo, Alopecurus myosuroides
# Method in brief: (§1)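 Test chemicals in a non-phytotoxic solvent mixture with surfactant were sprayed preemergence onto planted seeds and postemergence onto plants 2 to 18 cm tall (1- to 4-leaf stage). After twelve to sixteen days in a greenhouse, injury was visually rated against untreated controls from 0 (no effect) to 10 (complete control).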
# surinam grass = assay: Test B pre/postemergence surinam grass; format: in vivo, Brachiaria decumbens
# Method in brief: as §1
# cocklebur = assay: Test B pre/postemergence cocklebur; format: in vivo, Xanthium strumarium
# Method in brief: as §1
# corn = assay: Test B pre/postemergence corn; format: in vivo, Zea mays
# Method in brief: as §1
# crabgrass = assay: Test B pre/postemergence crabgrass; format: in vivo, Digitaria sanguinalis
# Method in brief: as §1
# giant foxtail = assay: Test B pre/postemergence giant foxtail; format: in vivo, Setaria faberii
# Method in brief: as §1
# morningglory = assay: Test B pre/postemergence morningglory; format: in vivo, Ipomoea hederacea
# Method in brief: as §1
# pigweed = assay: Test B pre/postemergence pigweed; format: in vivo, Amaranthus retroflexus
# Method in brief: as §1
# rape = assay: Test B pre/postemergence rape; format: in vivo, Brassica napus
# Method in brief: as §1
# soybean = assay: Test B pre/postemergence soybean; format: in vivo, Glycine max
# Method in brief: as §1
# sugar beet = assay: Test B pre/postemergence sugar beet; format: in vivo, Beta vulgaris
# Method in brief: as §1
# velvetleaf = assay: Test B pre/postemergence velvetleaf; format: in vivo, Abutilon theophrasti
# Method in brief: as §1
# wheat = assay: Test B pre/postemergence wheat; format: in vivo, Triticum aestivum
# Method in brief: as §1
# wild oat = assay: Test B pre/postemergence wild oat; format: in vivo, Avena fatua
# Method in brief: as §1
# purple nutsedge = assay: Test B pre/postemergence purple nutsedge; format: in vivo, Cyperus rotundus
# Method in brief: as §1
# rice = assay: Test B flood test rice; format: in vivo, Oryza sativa
# Method in brief: (§2)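 Each value is a visual injury score relative to controls, with 10 meaning complete control and 0 no effect. Evaluation took place twelve to sixteen days after the 2-leaf-stage plants were treated and kept in the greenhouse.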
# smallflower flatsedge = assay: Test B flood test smallflower flatsedge; format: in vivo, Cyperus difformis
# Method in brief: as §2
# duck salad = assay: Test B flood test duck salad; format: in vivo, Heteranthera limosa
# Method in brief: as §2
# bamyardgrass = assay: Test B flood test barnyardgrass; format: in vivo, Echinochloa crus-galli
# Method in brief: as §2
# [1] = Postemergence, Rate 31 g/ha, visual rating, scale 0 to 10 (0 no effect, 10 complete control)
# [2] = Postemergence, Rate 62 g/ha, scale 0 to 10, 0 is no effect, 10 is complete control
# [3] = Postemergence, Rate 125 g/ha, scale of 0 to 10 where 0 is no effect and 10 is complete control
# [4] = Postemergence, Rate 250 g/ha, scale of 0 to 10, 0 is no effect, 10 is complete control
# [5] = Preemergence, Rate 31 g/ha, visual rating, scale 0 to 10 (0 no effect, 10 complete control)
# [6] = Preemergence, Rate 62 g/ha, scale of 0 to 10 where 0 is no effect and 10 is complete control
# [7] = Preemergence, Rate 125 g/ha, scale of 0 to 10 where 0 is no effect and 10 is complete control
# [8] = Preemergence, Rate 250 g/ha, scale 0 to 10 (0 no effect, 10 complete control)
# [9] = Rate 31 g/ha, Pre-emergence section (flood test species), scale 0 to 10
# [10] = Rate 62 g/ha, flood test species, Pre-emergence, visual evaluation after twelve to sixteen days
# [11] = Rate 125 g/ha, under heading Pre-emergence, flood test species, visual evaluation after twelve to sixteen days
# [12] = Rate 250 g/ha, Pre-emergence (flood test species), scale 0 to 10, 0 is no effect, 10 is complete control
smiles,measurement,setting,value
CC(C)N(C(=O)n1oc(=O)n(CCC2=NOCCC2)c1=O)c1ccc(F)cc1 [Compound 656],Blackgrass plant response rating,blackgrass; [1],6
same,"Plant response rating, Blackgrass",blackgrass; [2],6
same,Blackgrass plant response rating,blackgrass; [3],7
same,Blackgrass plant response rating,blackgrass; [4],9
same,Blackgrass plant response rating,blackgrass; [5],2
same,Blackgrass plant response rating,blackgrass; [6],4
same,Blackgrass plant response rating,blackgrass; [7],4
same,"Plant response rating, Blackgrass",blackgrass; [8],5
same,B. signalgrass plant response rating,surinam grass; [1],0
same,"Plant response rating, B. signalgrass",surinam grass; [2],0
same,"Plant response rating, B. signalgrass",surinam grass; [3],2
same,B. signalgrass plant response rating,surinam grass; [4],5
same,B. signalgrass plant response rating,surinam grass; [5],0
same,B. signalgrass plant response rating,surinam grass; [6],0
same,B. signalgrass plant response rating,surinam grass; [7],2
same,"Plant response rating, B. signalgrass",surinam grass; [8],6
same,Cocklebur plant response rating,cocklebur; [1],0
same,"Plant response rating, Cocklebur",cocklebur; [2],0
same,Cocklebur plant response rating,cocklebur; [3],0
same,Cocklebur plant response rating,cocklebur; [4],0
same,Cocklebur plant response rating,cocklebur; [5],0
same,Cocklebur plant response rating,cocklebur; [6],0
same,Cocklebur plant response rating,cocklebur; [7],0
same,"Plant response rating, Cocklebur",cocklebur; [8],0
same,Corn plant response rating,corn; [1],0
same,"Plant response rating, Corn",corn; [2],0
same,Corn plant response rating,corn; [3],0
same,Corn plant response rating,corn; [4],0
same,Corn plant response rating,corn; [5],0
same,Corn plant response rating,corn; [6],0
same,Corn plant response rating,corn; [7],0
same,"Plant response rating, Corn",corn; [8],0
same,Crabgrass plant response rating,crabgrass; [1],0
same,"Plant response rating, Crabgrass",crabgrass; [2],0
same,Crabgrass plant response rating,crabgrass; [3],0
same,Crabgrass plant response rating,crabgrass; [4],8
same,Crabgrass plant response rating,crabgrass; [5],6
same,Crabgrass plant response rating,crabgrass; [6],7
same,Crabgrass plant response rating,crabgrass; [7],7
same,"Plant response rating, Crabgrass",crabgrass; [8],8
same,Giant foxtail plant response rating,giant foxtail; [1],0
same,"Plant response rating, Giant foxtail",giant foxtail; [2],3
same,Giant foxtail plant response rating,giant foxtail; [3],9
same,Giant foxtail plant response rating,giant foxtail; [4],9
same,Giant foxtail plant response rating,giant foxtail; [5],4
same,Giant foxtail plant response rating,giant foxtail; [6],4
same,Giant foxtail plant response rating,giant foxtail; [7],10
same,"Plant response rating, Giant foxtail",giant foxtail; [8],10
same,Morningglory plant response rating,morningglory; [1],0
same,"Plant response rating, Morningglory",morningglory; [2],1
same,Morningglory plant response rating,morningglory; [3],2
same,Morningglory plant response rating,morningglory; [4],2
same,Morningglory plant response rating,morningglory; [6],0
same,Morningglory plant response rating,morningglory; [7],0
same,"Plant response rating, Morningglory",morningglory; [8],0
same,Redroot pigweed plant response rating,pigweed; [1],0
same,"Plant response rating, Redroot pigweed",pigweed; [2],0
same,Redroot pigweed plant response rating,pigweed; [3],0
same,Redroot pigweed plant response rating,pigweed; [6],0
same,Redroot pigweed plant response rating,pigweed; [7],4
same,"Plant response rating, Redroot pigweed",pigweed; [8],6
same,Rape plant response rating,rape; [1],0
same,"Plant response rating, Rape",rape; [2],0
same,Rape plant response rating,rape; [3],0
same,Rape plant response rating,rape; [6],0
same,Rape plant response rating,rape; [7],0
same,"Plant response rating, Rape",rape; [8],0
same,Soybean plant response rating,soybean; [1],1
same,"Plant response rating, Soybean",soybean; [2],2
same,Soybean plant response rating,soybean; [3],2
same,Soybean plant response rating,soybean; [6],0
same,Soybean plant response rating,soybean; [7],0
same,"Plant response rating, Soybean",soybean; [8],0
same,Sugarbeets plant response rating,sugar beet; [1],0
same,"Plant response rating, Sugarbeets",sugar beet; [2],0
same,Sugarbeets plant response rating,sugar beet; [3],0
same,Sugarbeets plant response rating,sugar beet; [6],0
same,Sugarbeets plant response rating,sugar beet; [7],0
same,"Plant response rating, Sugarbeets",sugar beet; [8],3
same,Velvetleaf plant response rating,velvetleaf; [1],0
same,"Plant response rating, Velvetleaf",velvetleaf; [2],0
same,Velvetleaf plant response rating,velvetleaf; [3],0
same,Velvetleaf plant response rating,velvetleaf; [6],2
same,Velvetleaf plant response rating,velvetleaf; [7],4
same,"Plant response rating, Velvetleaf",velvetleaf; [8],6
same,Wheat plant response rating,wheat; [1],0
same,"Plant response rating, Wheat",wheat; [2],0
same,Wheat plant response rating,wheat; [3],0
same,Wheat plant response rating,wheat; [6],0
same,Wheat plant response rating,wheat; [7],0
same,"Plant response rating, Wheat",wheat; [8],0
same,Wild oats plant response rating,wild oat; [1],0
same,"Plant response rating, Wild oats",wild oat; [2],0
same,Wild oats plant response rating,wild oat; [3],0
same,Wild oats plant response rating,wild oat; [6],0
same,Wild oats plant response rating,wild oat; [7],0
same,"Plant response rating, Wild oats",wild oat; [8],6
same,Nutsedge plant response rating,purple nutsedge; [1],0
same,"Plant response rating, Nutsedge",purple nutsedge; [2],0
same,Nutsedge plant response rating,purple nutsedge; [3],0
same,Nutsedge plant response rating,purple nutsedge; [6],0
same,Nutsedge plant response rating,purple nutsedge; [7],0
same,"Plant response rating, Nutsedge",purple nutsedge; [8],0
same,Rice plant response rating,rice; [9],0
same,"Plant response rating, Rice (0 to 10 scale, 0 is no effect, 10 is complete control)",rice; [10],0
same,"Rice plant response rating (0 to 10 scale, 0 is no effect, 10 is complete control)",rice; [11],0
same,Rice plant response rating,rice; [12],0
same,S. Flatsedge plant response rating,smallflower flatsedge; [9],0
same,"Plant response rating, S. Flatsedge (0 to 10 scale, 0 is no effect, 10 is complete control)",smallflower flatsedge; [10],0
same,"S. Flatsedge plant response rating (0 to 10 scale, 0 is no effect, 10 is complete control)",smallflower flatsedge; [11],0
same,S. Flatsedge plant response rating,smallflower flatsedge; [12],0
same,Ducksalad plant response rating,duck salad; [9],0
same,"Plant response rating, Ducksalad (0 to 10 scale, 0 is no effect, 10 is complete control)",duck salad; [10],0
same,"Ducksalad plant response rating (0 to 10 scale, 0 is no effect, 10 is complete control)",duck salad; [11],0
same,Ducksalad plant response rating,duck salad; [12],0
same,Barnyardgrass plant response rating,bamyardgrass; [9],0
same,"Plant response rating, Barnyardgrass (0 to 10 scale, 0 is no effect, 10 is complete control)",bamyardgrass; [10],0
same,"Barnyardgrass plant response rating (0 to 10 scale, 0 is no effect, 10 is complete control)",bamyardgrass; [11],0
same,Barnyardgrass plant response rating,bamyardgrass; [12],0

# From patent publication US6737383B1, “Herbicidal oxadiazolidines” (priority 1999, dated 2004)
